Like-named read-outs stand apart in the source and are kept apart here.
Tests used:
[1] = target: T1, human 5HT1A receptor (Homo sapiens, UniProt P08908); assay: h5HT1A receptors: [3H]8-OH-DPAT binding; conditions: read-out: 5-HT1A [^3H] 8—OH DPAT Ki(nM) ± SEM
T1 construct: expressed in transfected cells; host or cells: HEK cells (G418 selection)
T1 sequence (P08908 1-422): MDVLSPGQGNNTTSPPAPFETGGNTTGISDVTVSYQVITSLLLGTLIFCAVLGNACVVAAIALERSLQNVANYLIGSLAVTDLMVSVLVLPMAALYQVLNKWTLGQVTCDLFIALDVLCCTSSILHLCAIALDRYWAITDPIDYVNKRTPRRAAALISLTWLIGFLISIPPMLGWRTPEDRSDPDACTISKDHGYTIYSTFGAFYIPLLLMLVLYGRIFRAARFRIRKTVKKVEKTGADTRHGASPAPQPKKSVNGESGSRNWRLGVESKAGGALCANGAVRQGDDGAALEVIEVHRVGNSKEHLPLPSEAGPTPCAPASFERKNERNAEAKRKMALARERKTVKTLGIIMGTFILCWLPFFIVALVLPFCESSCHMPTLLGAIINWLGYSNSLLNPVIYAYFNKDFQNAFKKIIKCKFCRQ
Procedure: Human embryonic kidney cells expressing the human 5HT1A receptor (HEK-h5HT1A) were used. The cells were grown to confluence in DMEM containing 10% FetalClone® (abbreviated as FC—source: HyClone), 0.05% penicillin-streptomycin (pen-strep), and 300 μg/mL of Geneticin (G418). The cells were scraped from 150 mm plates into phosphate-buffered saline and centrifuged at 270×g, 1200 rpm, for 10 minutes. The cell pellet was homogenized in 50 mM Tris-HCl (pH 7.7) with a Polytron, and centrifuged at 27,000×g. […] The final pellet was resuspended at 0.5 mg protein/mL in assay buffer (25 mM Tris-HCl, pH 7.4, containing 100 μM ascorbic acid and 10 μM pargyline). The assay was performed in duplicate in a 96-well plate. Serial dilutions of test compounds were made using the Biomek 2000 robotics system. […] Nonspecific binding was determined with 1.0 μM dihydroergotamine. The plates were incubated at room temperature for 60 minutes and then filtered through polyethylenimine-soaked (0.05%) “A” filtermats on a Tomtec cell harvester. The filters were washed with cold 50 mM Tris buffer (pH 7.7) for 6 sec, dried, spotted with scintillation cocktail, and counted for 2 minutes after a 4 hour delay on a Wallac Betaplate 1205 liquid scintillation counter.

[2] = target: T2, human 5HT2A receptor (Homo sapiens, UniProt P28223); assay: h5HT2A receptors: [125I]DOI binding
T2 construct: expressed in transfected cells; host or cells: HEK cells
T2 sequence (P28223 whole entry): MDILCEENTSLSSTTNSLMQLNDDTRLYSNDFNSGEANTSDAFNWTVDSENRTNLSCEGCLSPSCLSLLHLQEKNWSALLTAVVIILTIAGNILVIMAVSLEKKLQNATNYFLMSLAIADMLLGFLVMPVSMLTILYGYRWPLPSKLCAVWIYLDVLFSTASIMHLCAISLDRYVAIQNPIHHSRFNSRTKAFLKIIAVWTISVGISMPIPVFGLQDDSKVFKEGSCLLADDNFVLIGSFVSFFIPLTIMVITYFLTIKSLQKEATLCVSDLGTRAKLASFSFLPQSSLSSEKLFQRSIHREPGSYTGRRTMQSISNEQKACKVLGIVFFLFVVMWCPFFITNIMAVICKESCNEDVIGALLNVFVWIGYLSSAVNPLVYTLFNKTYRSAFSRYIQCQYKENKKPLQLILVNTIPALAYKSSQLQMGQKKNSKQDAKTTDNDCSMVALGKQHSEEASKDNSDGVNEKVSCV
Procedure: Method: Human embryonic kidney cells expressing the human 5HT2A receptor (HEK-h5HT2A) or human 5HT2C receptor (HEK-h5HT2C) were used. The cells were grown until confluent on 15 cm plates. Media was removed, cells were washed with phosphate-buffered saline (PBS), scraped into 2 ml PBS and frozen at −20° C. until needed. Cell suspension was thawed, 10 ml assay buffer (50 mM Tris, pH 7.4 at 37° C., with 0.1% ascorbic acid and 5 mM CaCl2) was added per plate of cells, and polytronned at setting 6 for 5 sec. The homogenate was centrifuged at 15,500 rpm for 20 min. […] The final pellet was resuspended in 2 ml buffer/plate of cells.
The reaction was incubated for 1 hour at 37° C., and terminated by filtration through Wallac A filtermats presoaked in 0.05% polyethylenimine using a Tomtec 96-well harvester. Radioactivity remaining on filters was counted in a Wallac betaplate reader. IC50 values were calculated using GraphPad Prism. IC50 values were converted using the Cheng-Prusoff equation.

[3] = target: T3, VMAT2 (Homo sapiens, UniProt Q05940); assay: hVMAT2 [3H]DTBZ ([3H]DHTB) binding assay; design: expressed in transfected cells; host or cells: HEK (human embryonic kidney) cells
T3 sequence (Q05940 whole entry): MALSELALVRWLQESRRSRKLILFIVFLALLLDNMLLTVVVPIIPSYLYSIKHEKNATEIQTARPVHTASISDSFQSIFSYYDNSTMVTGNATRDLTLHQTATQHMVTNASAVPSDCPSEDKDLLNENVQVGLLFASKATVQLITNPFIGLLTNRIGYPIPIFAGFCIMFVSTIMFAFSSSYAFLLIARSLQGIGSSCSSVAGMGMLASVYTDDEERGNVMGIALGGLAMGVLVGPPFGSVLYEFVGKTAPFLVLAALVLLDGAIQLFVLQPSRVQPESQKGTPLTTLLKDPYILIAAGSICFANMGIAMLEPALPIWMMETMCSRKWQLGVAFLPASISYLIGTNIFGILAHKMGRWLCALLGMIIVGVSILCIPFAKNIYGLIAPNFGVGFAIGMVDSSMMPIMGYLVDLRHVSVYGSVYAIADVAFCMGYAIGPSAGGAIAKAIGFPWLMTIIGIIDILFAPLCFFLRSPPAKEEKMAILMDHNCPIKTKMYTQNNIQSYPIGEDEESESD

[4] = target: T3, VMAT2; assay: hVMAT2 5HT Uptake; assay type: biochemical; design: expressed in transfected cells; host or cells: HEK (human embryonic kidney) cells
Procedure, shortened: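 Membranes came from HEK cells expressing human VMAT2, homogenized in 0.32 M sucrose with protease inhibitors and spun at 800×g then 10,000×g. The pellet was osmotically shocked in ice-cold water, restored with Tris pH 7.4, sodium potassium tartrate and MgSO4, and collected at 20,000×g.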

[5] = target: T4, recombinant human dopamine transporter (hDAT) (Homo sapiens, UniProt Q01959); assay: [125I]RTI-55 binding, HEK-hDAT; conditions: used in Cheng-Prusoff equation
T4 construct: expressed in transfected cells; host or cells: HEK cells
T4 sequence (Q01959 whole entry): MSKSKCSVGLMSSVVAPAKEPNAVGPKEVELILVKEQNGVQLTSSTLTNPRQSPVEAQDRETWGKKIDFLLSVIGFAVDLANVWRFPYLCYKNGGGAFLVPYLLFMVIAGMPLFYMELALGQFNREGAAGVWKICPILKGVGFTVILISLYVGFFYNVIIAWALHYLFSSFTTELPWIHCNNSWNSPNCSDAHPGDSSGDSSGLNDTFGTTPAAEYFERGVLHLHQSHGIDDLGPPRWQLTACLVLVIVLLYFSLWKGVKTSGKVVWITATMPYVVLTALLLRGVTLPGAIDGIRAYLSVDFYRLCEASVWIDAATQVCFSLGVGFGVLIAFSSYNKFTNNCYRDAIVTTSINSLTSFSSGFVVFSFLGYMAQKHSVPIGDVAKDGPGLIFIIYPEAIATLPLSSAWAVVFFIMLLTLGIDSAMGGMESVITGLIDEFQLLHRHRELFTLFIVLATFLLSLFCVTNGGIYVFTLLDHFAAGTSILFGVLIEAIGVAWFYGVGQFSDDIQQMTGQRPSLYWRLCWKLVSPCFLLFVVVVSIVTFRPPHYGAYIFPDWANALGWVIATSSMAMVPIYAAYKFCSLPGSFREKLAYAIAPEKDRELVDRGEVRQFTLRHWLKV
Procedure: (§1) Standard methods of assessing [^3H]neurotransmitter uptake and [^125I]RTI-55 binding using HEK cell lines are described in Eshleman et al, J Pharmacol Exp Therap 289, 877-885 (1999), which is incorporated by reference herein and were as follows:
(§2) Compounds were weighed and dissolved in DMSO to make a stock solution of 10 mM. An initial dilution to 50 μM in assay buffer or water for binding, or to 1 mM in assay buffer or water for uptake, was made. Subsequent dilutions were made with assay buffer supplemented with DMSO, maintaining a final concentration of 0.1% DMSO. Pipetting was conducted using a Biomek 2000 robotic workstation.
(§3) Cells were grown to 100% confluence on 150 mm diameter tissue culture dishes and served as the tissue source. Cell membranes were prepared as follows. Medium was poured off the plate, and the plate was washed with 10 ml of calcium- and magnesium-free phosphate-buffered saline. Lysis buffer (10 ml; 2 mM HEPES with 1 mM EDTA) was added. After 10 min, lysed cells were scraped from plates, transferred into centrifuge tubes, and centrifuged at 30,000×g for 20 min. The supernatant fluid was removed, and the pellet was resuspended in 12-32 ml of sucrose (0.32 M) using a Polytron at setting 7 for 10 sec. The resuspension volume depended on the density of binding sites within a cell line and was chosen to reflect binding of 10% or less of the total radioactivity. […]

[6] = target: T5, recombinant human serotonin transporter (hSERT) (Homo sapiens, UniProt P31645); assay: [125I]RTI-55 binding, HEK-hSERT; conditions: used in Cheng-Prusoff equation
T5 construct: expressed in transfected cells; host or cells: HEK cells
T5 sequence (P31645 whole entry): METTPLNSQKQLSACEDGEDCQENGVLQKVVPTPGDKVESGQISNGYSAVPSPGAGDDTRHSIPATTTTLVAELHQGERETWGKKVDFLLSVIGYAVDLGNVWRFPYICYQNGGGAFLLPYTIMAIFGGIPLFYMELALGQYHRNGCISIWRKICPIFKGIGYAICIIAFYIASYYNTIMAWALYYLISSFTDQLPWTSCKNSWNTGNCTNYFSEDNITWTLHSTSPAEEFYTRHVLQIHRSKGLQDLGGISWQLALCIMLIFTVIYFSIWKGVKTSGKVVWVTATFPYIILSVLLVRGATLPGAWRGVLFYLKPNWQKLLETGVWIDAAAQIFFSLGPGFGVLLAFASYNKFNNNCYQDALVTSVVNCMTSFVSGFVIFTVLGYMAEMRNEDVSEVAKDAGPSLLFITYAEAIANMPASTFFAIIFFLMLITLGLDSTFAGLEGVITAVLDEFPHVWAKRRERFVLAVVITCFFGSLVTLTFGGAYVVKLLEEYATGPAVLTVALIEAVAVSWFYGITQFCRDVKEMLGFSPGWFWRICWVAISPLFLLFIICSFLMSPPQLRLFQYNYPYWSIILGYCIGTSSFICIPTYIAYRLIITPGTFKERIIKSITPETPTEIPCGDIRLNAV
Procedure: as §1, §2, §3

[7] = target: T6, recombinant human norepinephrine transporter (hNET) (Homo sapiens, UniProt P23975); assay: [125I]RTI-55 binding, HEK-hNET; conditions: used in Cheng-Prusoff equation
T6 construct: expressed in transfected cells; host or cells: HEK cells
T6 sequence (P23975 whole entry): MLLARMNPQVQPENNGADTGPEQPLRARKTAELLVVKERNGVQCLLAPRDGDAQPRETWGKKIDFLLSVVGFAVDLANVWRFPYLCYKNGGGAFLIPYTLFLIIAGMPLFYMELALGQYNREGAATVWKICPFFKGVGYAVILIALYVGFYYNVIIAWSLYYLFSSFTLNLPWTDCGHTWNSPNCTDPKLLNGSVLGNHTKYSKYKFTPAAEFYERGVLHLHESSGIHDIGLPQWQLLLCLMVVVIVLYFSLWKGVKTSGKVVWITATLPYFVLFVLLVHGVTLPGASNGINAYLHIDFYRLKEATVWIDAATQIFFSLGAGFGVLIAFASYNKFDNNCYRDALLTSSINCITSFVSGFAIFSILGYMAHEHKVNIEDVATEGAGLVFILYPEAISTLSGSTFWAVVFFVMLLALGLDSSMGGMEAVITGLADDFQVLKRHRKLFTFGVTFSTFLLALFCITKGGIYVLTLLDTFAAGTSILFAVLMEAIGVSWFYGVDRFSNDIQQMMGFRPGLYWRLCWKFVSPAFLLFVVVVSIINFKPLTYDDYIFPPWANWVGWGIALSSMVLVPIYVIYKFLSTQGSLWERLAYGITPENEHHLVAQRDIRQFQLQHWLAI
Procedure: as §1, §2, §3

[8] = cells printed in μM under a head in nM
[9] = cells printed in μM under a head in nM, read-out: 5-HT2A [^125I]DOI Ki (nM) ± SEM
[10] = cells printed in μM under a head in nM, HEK-hVMAT2 membranes
[11] = [^3H]5HT uptake, HEK-hVMAT2 preparation, read-out: hVMAT2 5HT Uptake IC50 (nM) ± SEM
[12] = cells printed in μM under a head in nM, read-out: hVMAT2 5HT Uptake IC50 (nM) ± SEM
[13] = HEK-h5HT2A homogenate, read-out: 5-HT2A [^125I]DOI Ki (nM) ± SEM
[14] = HEK-hVMAT2 membranes, series 5 ligands tested as hydrochloride salts

SMILES: CCOC(=O)[C@@H]1CN(CCn2c(=O)[nH]c3ccccc3c2=O)CC[C@@H]1c1ccc(C)cc1 (racemic) [Compound 5b, (±) syn-ethyl 1-(2-(2,4-dioxo-1,2-dihydroquinazolin-3(4H)-yl)ethyl)-4-(p-tolyl)piperidine-3-carboxylate]
- Ki [1, 8]: > 10 µM
- Ki [2, 9]: > 10 µM
- Ki [3, 10]: > 9 µM
- IC50 [4, 11]: 313 ± 54 nM

SMILES: CCOC(=O)[C@@H]1CN(CCn2c(=O)[nH]c3ccccc3c2=O)CC[C@@H]1c1ccc(C(F)(F)F)cc1 (racemic) [Compound 5f, (±) syn-ethyl 1-(2-(2,4-dioxo-1,2-dihydroquinazolin-3(4H)-yl)ethyl)-4-(4-(trifluoromethyl)phenyl)piperidine-3-carboxylate]
- Ki [1, 8]: > 10 µM
- Ki [2, 9]: > 10 µM
- Ki [3, 10]: > 10 µM
- IC50 [4, 11]: 416 ± 43 nM

SMILES: CCOC(=O)[C@@H]1CN(CCn2c(=O)[nH]c3ccccc3c2=O)CC[C@@H]1c1cccc(C(F)(F)F)c1 (racemic) [Compound 5g, (±) syn-ethyl 1-(2-(2,4-dioxo-1,2-dihydroquinazolin-3(4H)-yl)ethyl)-4-(3-(trifluoromethyl)phenyl)piperidine-3-carboxylate]
- Ki [1, 8]: > 10 µM
- Ki [2, 9]: > 10 µM
- Ki [3, 10]: > 10 µM
- IC50 [4, 11]: 166 ± 6 nM

SMILES: CCOC(=O)[C@@H]1CN(CCn2c(=O)[nH]c3ccccc3c2=O)CC[C@@H]1c1ccc(C(C)O)cc1 (mixture of isomers) [Compound 5p, (±) syn-ethyl 1-(2-(2,4-dioxo-1,2-dihydroquinazolin-3(4H)-yl)ethyl)-4-(4-(1-hydroxyethyl)phenyl)piperidine-3-carboxylate]
- Ki [1, 8]: > 10 µM
- Ki [2, 9]: > 10 µM
- melting point: 187 to 188 °C
- Ki [3, 10]: > 9 µM
- IC50 [4, 12]: > 8000 nM

SMILES: CC1CN(CCn2c(=O)[nH]c3ccccc3c2=O)CCC1C(=O)c1ccc(F)cc1 (racemic) [R1=H, R2=α/β-CH3]
- Ki [1, 8]: > 10 µM
- Ki [2, 13]: 0.0459 ± 0.0124 µM
- Ki [3, 14]: 0.276 ± 0.024 µM
- IC50 [4, 11]: 333 ± 106 nM

SMILES: CC1CN(CCn2c(=O)[nH]c3ccccc3c2=O)CCC1C(=O)c1ccc(F)cc1 (single isomer, unassigned) [R1=H, R2=α-CH3]
- Ki [1, 8]: > 5 µM
- Ki [2, 13]: 0.0198 ± 0.0058 µM
- Ki [3, 10]: > 6.4 µM
- IC50 [4, 12]: > 7300 nM

SMILES: O=C(c1ccc(F)cc1)C1CCN(CCn2c(=O)[nH]c3ccc(Br)cc3c2=O)CC1 [R1=Br, R2=H]
- Ki [1, 8]: > 2 µM
- Ki [2, 13]: 0.0008 ± 0.00024 µM
- Ki [3, 10]: > 3 µM
- IC50 [4, 12]: > 2000 nM

SMILES: CCOC(=O)C1=C(c2ccccc2)CCN(CCn2c(=O)[nH]c3ccccc3c2=O)C1 [R1=CO2-Et, 3,4-bond=ene]
- Ki ([1]; HEK-h5HT1A homogenate): > 0.0063 µM
- Ki [2]: 0.081 ± 0.026 µM
- Ki ([3]; read-out: hVMAT2 [^3H]DTBZ Ki (nM) ± SEM): 0.874 ± 0.276 µM
- IC50 [4]: 66 ± 15 nM

SMILES: O=c1[nH]c2ccccc2c(=O)n1CCN1CC=C(c2ccccc2)CC1 [R1=H, 3,4-bond=ene]
- Ki ([1]; HEK-h5HT1A homogenate): 0.197 ± 0.015 µM
- Ki [2, 13]: 0.139 ± 0.027 µM
- Ki [3, 14]: 0.821 ± 0.197 µM
- IC50 [4]: 3.9 ± 0.5 nM

SMILES: COC(=O)[C@H]1[C@@H](c2ccc(I)cc2)C[C@@H]2CC[C@H]1N2C [[^125I]RTI-55]
- Kd [5]: 1.2 nM
- Kd [6]: 0.98 nM
- Kd [7]: 12.1 nM

Source: patent US9546151B2, “VMAT inhibitory compounds” (Oregon Health & Science University, priority 2014, dated 2017)
